Assay results as given in ChEMBL document CHEMBL3856199, “Melanoma-targeted delivery system (part 2): Synthesis, radioiodination and biological evaluation in B16F0 bearing mice” (Eur J Med Chem, 2016).

Key:
[1] = Ratio of drug uptake in tumor to blood in C57BL/6J mouse implanted with mouse B16F0 cells at 3.7 MBq, iv measured at 24 hrs post injection; format: ADME, organism-based
[2] = Drug uptake in eyes of C57BL/6J mouse implanted with mouse B16F0 cells at 3.7 MBq, iv measured at 72 hrs post injection by gamma counting analysis; format: ADME, organism-based, Eye; conditions: in vivo
[3] = Ratio of drug uptake in tumor to muscle in C57BL/6J mouse implanted with mouse B16F0 cells at 3.7 MBq, iv measured at 1 hr post injection; format: ADME, organism-based; conditions: in vivo
[4] = Drug uptake in stomach of C57BL/6J mouse implanted with mouse B16F0 cells at 3.7 MBq, iv measured at 6 hrs post injection by gamma counting analysis; format: ADME, organism-based; conditions: in vivo
[5] = Drug uptake in tumor of C57BL/6J mouse implanted with mouse B16F0 cells at 3.7 MBq, iv measured at 24 hrs post injection by gamma counting analysis; format: ADME, organism-based, Neoplasm; conditions: in vivo
[6] = Drug uptake in thyroid/submaxillary glands of C57BL/6J mouse implanted with mouse B16F0 cells at 3.7 MBq, iv measured at 6 hrs post injection by gamma counting analysis; format: ADME, organism-based, Submaxillary gland/Thyroid; conditions: in vivo
[7] = Drug uptake in blood of C57BL/6J mouse implanted with mouse B16F0 cells at 3.7 MBq, iv measured at 3 hrs post injection by gamma counting analysis; format: ADME, organism-based; conditions: in vivo
[8] = Ratio of drug uptake in tumor to muscle in C57BL/6J mouse implanted with mouse B16F0 cells at 3.7 MBq, iv measured at 72 hrs post injection; format: ADME, organism-based; conditions: in vivo
[9] = Drug uptake in intestine of C57BL/6J mouse implanted with mouse B16F0 cells at 3.7 MBq, iv measured at 6 hrs post injection by gamma counting analysis; format: ADME, organism-based; conditions: in vivo
Mus musculus [10] = experiment: Toxicity in C57BL/6J mouse assessed as closed eyes at 3.7 MBq, iv measured up to 72 hrs post injection; format: organism-based; conditions: in vivo
[11] = Drug uptake in muscles of C57BL/6J mouse implanted with mouse B16F0 cells at 3.7 MBq, iv measured at 6 hrs post injection by gamma counting analysis; format: ADME, organism-based, Muscle tissue; conditions: in vivo
[12] = Drug uptake in kidney of C57BL/6J mouse implanted with mouse B16F0 cells at 3.7 MBq, iv measured at 6 hrs post injection by gamma counting analysis; format: ADME, organism-based; conditions: in vivo
[13] = Drug uptake in tumor of C57BL/6J mouse implanted with mouse B16F0 cells at 3.7 MBq, iv measured at 1 hr post injection by gamma counting analysis; format: ADME, organism-based, Neoplasm; conditions: in vivo
[14] = Drug uptake in kidney of C57BL/6J mouse implanted with mouse B16F0 cells at 3.7 MBq, iv measured at 24 hrs post injection by gamma counting analysis; format: ADME, organism-based; conditions: in vivo
[15] = Drug uptake in blood of C57BL/6J mouse implanted with mouse B16F0 cells at 3.7 MBq, iv measured at 6 hrs post injection by gamma counting analysis; format: ADME, organism-based; conditions: in vivo
[16] = Drug uptake in blood of C57BL/6J mouse implanted with mouse B16F0 cells at 3.7 MBq, iv measured at 72 hrs post injection by gamma counting analysis; format: ADME, organism-based; conditions: in vivo
[17] = Drug uptake in liver of C57BL/6J mouse implanted with mouse B16F0 cells at 3.7 MBq, iv measured at 72 hrs post injection by gamma counting analysis; format: ADME, organism-based; conditions: in vivo
Mus musculus [18] = experiment: Toxicity in C57BL/6J mouse assessed as rough coat at 3.7 MBq, iv measured up to 72 hrs post injection; format: organism-based; conditions: in vivo
[19] = Drug uptake in thyroid/submaxillary glands of C57BL/6J mouse implanted with mouse B16F0 cells at 3.7 MBq, iv measured at 3 hrs post injection by gamma counting analysis; format: ADME, organism-based, Submaxillary gland/Thyroid; conditions: in vivo
[20] = Drug uptake in thyroid/submaxillary glands of C57BL/6J mouse implanted with mouse B16F0 cells at 3.7 MBq, iv measured at 24 hrs post injection by gamma counting analysis; format: ADME, organism-based, Submaxillary gland/Thyroid; conditions: in vivo
[21] = Drug uptake in muscles of C57BL/6J mouse implanted with mouse B16F0 cells at 3.7 MBq, iv measured at 1 hr post injection by gamma counting analysis; format: ADME, organism-based, Muscle tissue; conditions: in vivo
[22] = Drug uptake in intestine of C57BL/6J mouse implanted with mouse B16F0 cells at 3.7 MBq, iv measured at 24 hrs post injection by gamma counting analysis; format: ADME, organism-based; conditions: in vivo
[23] = Drug uptake in stomach of C57BL/6J mouse implanted with mouse B16F0 cells at 3.7 MBq, iv measured at 1 hr post injection by gamma counting analysis; format: ADME, organism-based; conditions: in vivo
Mus musculus [24] = experiment: Toxicity in C57BL/6J mouse assessed as lethargy at 3.7 MBq, iv measured up to 72 hrs post injection; format: organism-based; conditions: in vivo
[25] = Drug uptake in thyroid/submaxillary glands of C57BL/6J mouse implanted with mouse B16F0 cells at 3.7 MBq, iv measured at 1 hr post injection by gamma counting analysis; format: ADME, organism-based, Submaxillary gland/Thyroid; conditions: in vivo
[26] = Drug uptake in tumor of C57BL/6J mouse implanted with mouse B16F0 cells at 3.7 MBq, iv measured at 3 hrs post injection by gamma counting analysis; format: ADME, organism-based, Neoplasm; conditions: in vivo
[27] = Drug uptake in intestine of C57BL/6J mouse implanted with mouse B16F0 cells at 3.7 MBq, iv measured at 72 hrs post injection by gamma counting analysis; format: ADME, organism-based; conditions: in vivo
[28] = Ratio of drug uptake in tumor to muscle in C57BL/6J mouse implanted with mouse B16F0 cells at 3.7 MBq, iv measured at 6 hrs post injection; format: ADME, organism-based; conditions: in vivo
[29] = Drug uptake in kidney of C57BL/6J mouse implanted with mouse B16F0 cells at 3.7 MBq, iv measured at 3 hrs post injection by gamma counting analysis; format: ADME, organism-based; conditions: in vivo
[30] = Drug uptake in tumor of C57BL/6J mouse implanted with mouse B16F0 cells at 3.7 MBq, iv measured at 72 hrs post injection by gamma counting analysis; format: ADME, organism-based, Neoplasm; conditions: in vivo
[31] = Drug uptake in liver of C57BL/6J mouse implanted with mouse B16F0 cells at 3.7 MBq, iv measured at 1 hr post injection by gamma counting analysis; format: ADME, organism-based; conditions: in vivo
[32] = Drug uptake in eyes of C57BL/6J mouse implanted with mouse B16F0 cells at 3.7 MBq, iv measured at 6 hrs post injection by gamma counting analysis; format: ADME, organism-based, Eye; conditions: in vivo
[33] = Drug uptake in muscles of C57BL/6J mouse implanted with mouse B16F0 cells at 3.7 MBq, iv measured at 3 hrs post injection by gamma counting analysis; format: ADME, organism-based, Muscle tissue; conditions: in vivo
[34] = Drug uptake in stomach of C57BL/6J mouse implanted with mouse B16F0 cells at 3.7 MBq, iv measured at 72 hrs post injection by gamma counting analysis; format: ADME, organism-based; conditions: in vivo
[35] = Drug uptake in stomach of C57BL/6J mouse implanted with mouse B16F0 cells at 3.7 MBq, iv measured at 24 hrs post injection by gamma counting analysis; format: ADME, organism-based; conditions: in vivo
[36] = Drug uptake in liver of C57BL/6J mouse implanted with mouse B16F0 cells at 3.7 MBq, iv measured at 3 hrs post injection by gamma counting analysis; format: ADME, organism-based; conditions: in vivo
[37] = Drug uptake in eyes of C57BL/6J mouse implanted with mouse B16F0 cells at 3.7 MBq, iv measured at 1 hr post injection by gamma counting analysis; format: ADME, organism-based, Eye; conditions: in vivo
[38] = Drug uptake in liver of C57BL/6J mouse implanted with mouse B16F0 cells at 3.7 MBq, iv measured at 24 hrs post injection by gamma counting analysis; format: ADME, organism-based; conditions: in vivo

SMILES	Kp at 24 h [1]	Drug uptake [2]	Ratio [3]	Drug uptake [4]	Drug uptake [5]	Drug uptake [6]	Drug uptake [7]	Ratio [8]	Drug uptake [9]	Activity (Mus musculus [10])	Drug uptake [11]	Drug uptake [12]	Drug uptake [13]	Drug uptake [14]	Drug uptake [15]	Drug uptake [16]	Drug uptake [17]	Activity (Mus musculus [18])	Drug uptake [19]	Drug uptake [20]	other results
O=c1[nH]c(=O)n([C@H]2C[C@H](O)[C@@H](CO)O2)cc1[125I]	7.24	0.03 % ID/g	2.96	4.19 % ID/g	0.46 % ID/g	14.26 % ID/g	1.49 % ID/g	14.58	0.77 % ID/g	Non-Toxic	0.11 % ID/g	0.38 % ID/g	2.79 % ID/g	0.12 % ID/g	0.52 % ID/g	0.02 % ID/g	0.04 % ID/g	Non-Toxic	14.55 % ID/g	22.45 % ID/g	Drug uptake [21]: 1.13 % ID/g; Drug uptake [22]: 0.34 % ID/g; Drug uptake [23]: 18.09 % ID/g; Activity (Mus musculus [24]): Non-Toxic; Drug uptake [25]: 13.63 % ID/g; Drug uptake [26]: 1.66 % ID/g; Drug uptake [27]: 0.24 % ID/g; Ratio [28]: 10.66; Drug uptake [29]: 1.08 % ID/g; Drug uptake [30]: 0.33 % ID/g; Drug uptake [31]: 1.3 % ID/g; Drug uptake [32]: 0.24 % ID/g; Drug uptake [33]: 1.06 % ID/g; Drug uptake [34]: 0.2 % ID/g; Drug uptake [35]: 0.62 % ID/g; Drug uptake [36]: 0.63 % ID/g; Drug uptake [37]: 1.02 % ID/g; Drug uptake [38]: 0.08 % ID/g
CCN(CC)CCNC(=O)c1cnc2cc(NC(=O)COc3ccc(SSCCOC(=O)O[C@H]4C[C@H](n5cc([125I])c(=O)[nH]c5=O)O[C@@H]4CO)cc3)ccc2n1	5.63	0.08 % ID/g	4.84	6.67 % ID/g	0.72 % ID/g	26.6 % ID/g	2.57 % ID/g	5.28	1.24 % ID/g	Non-Toxic	0.19 % ID/g	0.87 % ID/g	2.23 % ID/g	0.2 % ID/g	1 % ID/g	1.94 % ID/g	0.11 % ID/g	Non-Toxic	20.47 % ID/g	19.5 % ID/g	Drug uptake [21]: 0.47 % ID/g; Drug uptake [22]: 0.4 % ID/g; Drug uptake [23]: 19.21 % ID/g; Activity (Mus musculus [24]): Non-Toxic; Drug uptake [25]: 11.05 % ID/g; Drug uptake [26]: 2.75 % ID/g; Drug uptake [27]: 0.27 % ID/g; Ratio [28]: 12.3; Drug uptake [29]: 1.89 % ID/g; Drug uptake [30]: 0.37 % ID/g; Drug uptake [31]: 1.12 % ID/g; Drug uptake [32]: 0.28 % ID/g; Drug uptake [33]: 0.51 % ID/g; Drug uptake [34]: 0.23 % ID/g; Drug uptake [35]: 1.01 % ID/g; Drug uptake [36]: 1.23 % ID/g; Drug uptake [37]: 0.78 % ID/g; Drug uptake [38]: 0.13 % ID/g
